Consider one compound from ChEMBL document CHEMBL4184203, “A review on the hybrids of hydroxycinnamic acid as multi-target-directed ligands against Alzheimer's disease” (Bioorg Med Chem, 2018).

For this assay, the target named is Amyloid-beta precursor protein (Homo sapiens) (UniProt P05067). The assay can be described thus: Inhibition of self-mediated aggregation of amyloid beta (1 to 42 residues) (unknown origin) at 10 uM by Thioflavin T based assay relative to control.
Sequence of Amyloid-beta precursor protein (Homo sapiens) (P05067 whole entry, the tested form may be a part): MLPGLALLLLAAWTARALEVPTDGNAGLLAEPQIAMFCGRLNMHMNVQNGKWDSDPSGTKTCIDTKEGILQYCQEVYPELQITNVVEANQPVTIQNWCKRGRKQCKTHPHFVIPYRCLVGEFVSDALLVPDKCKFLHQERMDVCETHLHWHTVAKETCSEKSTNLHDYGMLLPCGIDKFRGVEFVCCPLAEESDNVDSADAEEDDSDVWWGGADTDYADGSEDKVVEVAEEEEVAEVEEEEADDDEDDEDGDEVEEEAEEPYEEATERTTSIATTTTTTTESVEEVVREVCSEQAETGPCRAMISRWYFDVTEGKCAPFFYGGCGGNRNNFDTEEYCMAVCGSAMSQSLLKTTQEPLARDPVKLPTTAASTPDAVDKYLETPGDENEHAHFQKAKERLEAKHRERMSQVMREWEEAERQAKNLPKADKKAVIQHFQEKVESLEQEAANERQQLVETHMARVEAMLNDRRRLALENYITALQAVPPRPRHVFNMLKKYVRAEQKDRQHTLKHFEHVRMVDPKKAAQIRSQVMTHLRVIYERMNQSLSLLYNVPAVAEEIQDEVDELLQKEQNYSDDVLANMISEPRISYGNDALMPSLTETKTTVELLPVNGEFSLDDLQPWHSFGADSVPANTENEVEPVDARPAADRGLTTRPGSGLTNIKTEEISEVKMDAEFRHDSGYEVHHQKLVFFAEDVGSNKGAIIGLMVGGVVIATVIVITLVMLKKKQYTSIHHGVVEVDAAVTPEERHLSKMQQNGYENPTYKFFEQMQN

In general, inhibition refers to the drop in the measured response relative to a control, in per cent. A lower inhibition goes with little suppression. `COc1cc(/C=C/C(=O)Nc2ccc(-c3ccc(NC(=O)/C=C/c4ccc(O)c(OC)c4)cc3)cc2)ccc1O` had an inhibition of 83.7%.
